Patent publication US9993494B2, “Compositions and methods for treating fibrotic disease” (eFFECTOR Therapeutics, Inc., priority 2014, dated 2018)

Test system: normal human lung fibroblasts
Test: Ribosomal profiling: translational efficiency in TGFβ-treated fibroblasts
Type: cell-based
Method in brief: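 Genome-wide RPF and total RNA libraries (ARTseq, RNA-Seq) were made from lysates of cycloheximide-treated, PBS-washed cells. After trimming and human-genome mapping, per-gene coding-region counts were compared between RPF and RNA for translational efficiency. Genes scoring low in either fraction were dropped.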

For TGFβ, which “Log2 TE EEF1A1” value (ENSG00000156508, 5 replicates) is on record?
The value was 1.851.

What about the “change in translational profile of EEF1A1 caused by TGFβ” value (ENSG00000156508, Control vs. TGFβ) of the same substance?
The value was “E (E = <1.5 to 2.5)”.

And the “Log2 TE NRG1” value (ENSG00000157168, 5 replicates)?
Its value is 1.162.

And the “change in translational profile of NRG1 caused by TGFβ” value (ENSG00000157168, Control vs. TGFβ)?
The value was “D (D = <1.0 to 1.5)”.

What about the “change in translational profile of ADAMTS4 caused by TGFβ” value (ENSG00000158859, Control vs. TGFβ) of the same substance?
Its value is “D (D = <1.0 to 1.5)”.

What about the “Log2 TE RPL8” value (ENSG00000161016, 5 replicates) of the same substance?
The value was 1.353.

What about the “change in translational profile of RPL8 caused by TGFβ” value (ENSG00000161016, Control vs. TGFβ) of the same substance?
Its value is “E (E = <1.5 to 2.5)”.

And the “Log2 TE RPL26” value (ENSG00000161970, 5 replicates)?
The value was 1.655.

And the “change in translational profile of RPL26 caused by TGFβ” value (ENSG00000161970, Control vs. TGFβ)?
The value was “E (E = <1.5 to 2.5)”.

And the “Log2 TE RPL29” value (ENSG00000162244, 5 replicates)?
Its value is 1.589.

What about the “change in translational profile of RPL29 caused by TGFβ” value (ENSG00000162244, Control vs. TGFβ) of the same substance?
The value was “E (E = <1.5 to 2.5)”.

And the “change in translational profile of CAMK2N1 caused by TGFβ” value (ENSG00000162545, Control vs. TGFβ)?
Its value is “C (C = <−1.0 to −1.5)”.

And the “Log2 TE NFIA” value (ENSG00000162599, 5 replicates)?
Its value is −1.2934.

And the “Log2 TE ARHGAP25” value (ENSG00000163219, 5 replicates)?
Its value is 1.166.

What about the “change in translational profile of IGFBP7 caused by TGFβ” value (ENSG00000163453, Control vs. TGFβ) of the same substance?
Its value is “E (E = <1.5 to 2.5)”.

What about the “Log2 TE RPL22L1” value (ENSG00000163584, 5 replicates) of the same substance?
Its value is 1.012.

And the “change in translational profile of RPL22L1 caused by TGFβ” value (ENSG00000163584, Control vs. TGFβ)?
The value was “D (D = <1.0 to 1.5)”.

What about the “Log2 TE PTX3” value (ENSG00000163661, 5 replicates) of the same substance?
The value was −1.576.

And the “Log2 TE RPL9” value (ENSG00000163682, 5 replicates)?
The value was 1.613.

And the “change in translational profile of RPL9 caused by TGFβ” value (ENSG00000163682, Control vs. TGFβ)?
Its value is “E (E = <1.5 to 2.5)”.

What about the “Log2 TE TKT” value (ENSG00000163931, 5 replicates) of the same substance?
Its value is 1.142.

What about the “Log2 TE GUCY1A3” value (ENSG00000164116, 5 replicates) of the same substance?
The value was −1.932.

What about the “Log2 TE RHOBTB3” value (ENSG00000164292, 5 replicates) of the same substance?
Its value is −1.529.

And the “change in translational profile of RHOBTB3 caused by TGFβ” value (ENSG00000164292, Control vs. TGFβ)?
Its value is “B (B = <−1.5 to −2.5)”.

And the “Log2 TE TLR3” value (ENSG00000164342, 5 replicates)?
Its value is −1.371.

What about the “Log2 TE RPS14” value (ENSG00000164587, 5 replicates) of the same substance?
Its value is 1.684.

What about the “change in translational profile of HCN1 caused by TGFβ” value (ENSG00000164588, Control vs. TGFβ) of the same substance?
Its value is “D (D = <1.0 to 1.5)”.

And the “Log2 TE WBSCR27” value (ENSG00000165171, 5 replicates)?
Its value is 1.116.

And the “change in translational profile of RPL36AL caused by TGFβ” value (ENSG00000165502, Control vs. TGFβ)?
Its value is “D (D = <1.0 to 1.5)”.

What about the “Log2 TE RPL27A” value (ENSG00000166441, 5 replicates) of the same substance?
The value was 2.09.

What about the “change in translational profile of RPL27A caused by TGFβ” value (ENSG00000166441, Control vs. TGFβ) of the same substance?
Its value is “F (F = >2.5)”.

What about the “change in translational profile of RP11-382A20.3.1 caused by TGFβ” value (ENSG00000166503, Control vs. TGFβ) of the same substance?
Its value is “C (C = <−1.0 to −1.5)”.

And the “change in translational profile of ANKDD1A caused by TGFβ” value (ENSG00000166839, Control vs. TGFβ)?
The value was “C (C = <−1.0 to −1.5)”.

What about the “Log2 TE RPL13” value (ENSG00000167526, 5 replicates) of the same substance?
The value was 1.465.

And the “change in translational profile of RPL13 caused by TGFβ” value (ENSG00000167526, Control vs. TGFβ)?
The value was “E (E = <1.5 to 2.5)”.

What about the “Log2 TE EEF2” value (ENSG00000167658, 5 replicates) of the same substance?
Its value is 2.323.

What about the “change in translational profile of EEF2 caused by TGFβ” value (ENSG00000167658, Control vs. TGFβ) of the same substance?
Its value is “F (F = >2.5)”.

And the “Log2 TE RPSA” value (ENSG00000168028, 5 replicates)?
Its value is 1.359.

What about the “Log2 TE TET2” value (ENSG00000168769, 5 replicates) of the same substance?
The value was 1.377.

What about the “Log2 TE ZNF608” value (ENSG00000168916, 5 replicates) of the same substance?
The value was −1.59.

And the “Log2 TE SLC25A6” value (ENSG00000169100, 5 replicates)?
Its value is 1.909.

And the “Log2 TE THBS3” value (ENSG00000169231, 5 replicates)?
The value was 1.188.

What about the “Log2 TE CA5B” value (ENSG00000169239, 5 replicates) of the same substance?
The value was −1.791.

What about the “change in translational profile of CA5B caused by TGFβ” value (ENSG00000169239, Control vs. TGFβ) of the same substance?
The value was “B (B = <−1.5 to −2.5)”.

And the “Log2 TE KIAA1024” value (ENSG00000169330, 5 replicates)?
Its value is 2.216.

What about the “change in translational profile of KIAA1024 caused by TGFβ” value (ENSG00000169330, Control vs. TGFβ) of the same substance?
Its value is “F (F = >2.5)”.

And the “Log2 TE CRTAP” value (ENSG00000170275, 5 replicates)?
Its value is 1.022.

What about the “Log2 TE TMC7” value (ENSG00000170537, 5 replicates) of the same substance?
The value was 1.745.

What about the “Log2 TE MURC” value (ENSG00000170681, 5 replicates) of the same substance?
Its value is 3.678.

What about the “change in translational profile of MURC caused by TGFβ” value (ENSG00000170681, Control vs. TGFβ) of the same substance?
The value was “F (F = >2.5)”.

And the “change in translational profile of HTRA3 caused by TGFβ” value (ENSG00000170801, Control vs. TGFβ)?
The value was “C (C = <−1.0 to −1.5)”.

What about the “Log2 TE RPS9” value (ENSG00000170889, 5 replicates) of the same substance?
Its value is 1.6139.

What about the “Log2 TE PDGFD” value (ENSG00000170962, 5 replicates) of the same substance?
The value was −1.029.

What about the “Log2 TE PDE7B” value (ENSG00000171408, 5 replicates) of the same substance?
Its value is −2.782.

What about the “change in translational profile of PDE7B caused by TGFβ” value (ENSG00000171408, Control vs. TGFβ) of the same substance?
Its value is “A (A = <−2.5)”.

What about the “Log2 TE ZNF581” value (ENSG00000171425, 5 replicates) of the same substance?
Its value is 1.45.

And the “Log2 TE LPAR3” value (ENSG00000171517, 5 replicates)?
The value was −2.387.

And the “change in translational profile of LPAR3 caused by TGFβ” value (ENSG00000171517, Control vs. TGFβ)?
Its value is “A (A = <−2.5)”.

What about the “Log2 TE CTPS” value (ENSG00000171793, 5 replicates) of the same substance?
Its value is 1.08.
